In patent US20070197599A1, “HYDROXYLAMINES AND DERIVATIVES AS ANTI-ANGIOGENIC AGENTS” (priority 2006, published 2007):
Where two headings read alike, the source gives them in different places.

Columns and labels:
[1] = In vitro stability of Compound 1 in rat plasma; format: in vitro ADME; conditions: for Concentration of Compound 1 in plasma: 1000 ng/mL added; for half-life at 1000 ng/mL: rat, pooled rat plasma
Protocol: (§1) The active metabolite of Compound 1 (Cyclopropanecarboxylic acid 1-hydroxy-2,2,6,6-tetramethyl-piperidin-4-yl ester) is TPH. The objective of this analysis was to determine the in vitro half-life of Compound 1 in rat, rabbit, dog, and human plasma under standardized incubation conditions.
(§2) Compound 1 was incubated with pooled rat, rabbit, dog, and human plasma for various times under standardized incubation conditions. Pre-labeled tubes containing pooled plasma from rats, rabbits, dogs, and humans were pre-incubated in a shaking 37° C. water bath. A Compound 1 solution was added to the tubes at a final concentration of 1000 ng/mL. Time zero samples (n=5) were immediately removed and transferred into tubes containing a stabilizer solution (DTPA, acetylcysteine and ascorbic acid), the LC/MS/MS assay internal standard and methanol. […] The tubes were vortexed, placed on ice, followed by centrifugation. One hundred-μL aliquots of the supernatant were transferred into HPLC sample vials. Additional tubes (n=5 at each time point) were incubated for 5, 10, 20, 30, 60, 120, and 240 minutes at 37° C. and thereafter processed. The amount of Compound 1 and TPH in each incubated sample was quantified using validated LC/MS/MS assays.

[2] = In vitro stability of Compound 1 in rabbit plasma; format: in vitro ADME; conditions: for Concentration of Compound 1 in plasma: 1000 ng/mL added; for half-life at 1000 ng/mL: rabbit, pooled rabbit plasma
Protocol: as §1, §2

[3] = In vitro stability of Compound 1 in dog plasma; format: in vitro ADME; conditions: for Concentration of Compound 1 in plasma: 1000 ng/mL added; for half-life at 1000 ng/mL: dog, pooled dog plasma
Protocol: as §1, §2

[4] = In vitro stability of Compound 1 in human plasma; format: in vitro ADME; conditions: for Concentration of Compound 1 in plasma: 1000 ng/mL added; for half-life at 1000 ng/mL: human, pooled human plasma
Protocol: as §1, §2

[5] = Single-dose 10-minute intravenous infusion toxicokinetics in Sprague-Dawley rats; format: in vivo; conditions: for Cmax: in vivo, read-out: Cmax of Compound 1; for Cmax / Tmax: 10-minute iv infusion; for concentration at 0.167 hr: 0.167 hr from start of infusion; for Tmax: read-out: Tmax of Compound 1
Protocol: Blood for toxicokinetic evaluations was collected at pre-determined time points during and after the infusion.
All pharmacokinetic analyses were performed using Kinetica®, version 4.2 (Innaphase, Philadelphia, Pa.).
Cmax is the observed maximum plasma concentration
Tmax is the time Cmax is reached
T1/2 is the elimination half-life
The plasma concentrations were rounded to the nearest tenth of a ng/mL before the calculations. […] Nominal time points were used for all calculations.

[6] = average, read-out: in vitro half-life

CC1(C)CC(OC(=O)C2CC2)CC(C)(C)N1O.Cl [Compound 1, 1-hydroxy-4-cyclopropanecarbonyloxy-2,2,6,6-tetramethylpiperidine hydrochloride]
Concentration of Compound 1 in plasma ([1]; 37° C., incubation 0 min): 806.50 ± 86.77 ng/mL | Concentration of Compound 1 in plasma ([1]; 37° C., incubation 5 min): 770.32 ± 20.66 ng/mL | Concentration of Compound 1 in plasma ([1]; 37° C., incubation 10 min): 745.77 ± 15.50 ng/mL | Concentration of Compound 1 in plasma ([1]; 37° C., incubation 20 min): 682.88 ± 16.94 ng/mL | Concentration of Compound 1 in plasma ([1]; 37° C., incubation 30 min): 613.79 ± 25.84 ng/mL | Concentration of Compound 1 in plasma ([1]; 37° C., incubation 60 min): 480.48 ± 10.69 ng/mL | Concentration of Compound 1 in plasma ([1]; 37° C., incubation 120 min): 277.94 ± 5.55 ng/mL | Concentration of Compound 1 in plasma ([1]; 37° C., incubation 240 min): 80.70 ± 2.02 ng/mL | half-life at 1000 ng/mL [1, 6]: 70 min | half-life at 1000 ng/mL ([1]; in vitro, 37° C., read-out: T½): 69.5 min | Concentration of Compound 1 in plasma ([2]; 37° C., incubation 0 min): 502.75 ± 74.66 ng/mL | Concentration of Compound 1 in plasma ([2]; 37° C., incubation 5 min): 14.56 ± 3.35 ng/mL | Concentration of Compound 1 in plasma ([2]; 37° C., incubation 10 min): 0.00 ± 0.00 ng/mL | Concentration of Compound 1 in plasma ([2]; 37° C., incubation 20 min): 0.00 ± 0.00 ng/mL | Concentration of Compound 1 in plasma ([2]; 37° C., incubation 30 min): 0.00 ± 0.00 ng/mL | Concentration of Compound 1 in plasma ([2]; 37° C., incubation 60 min): 0.00 ± 0.00 ng/mL | Concentration of Compound 1 in plasma ([2]; 37° C., incubation 120 min): 0.00 ± 0.00 ng/mL | Concentration of Compound 1 in plasma ([2]; 37° C., incubation 240 min): 0.00 ± 0.00 ng/mL | half-life at 1000 ng/mL [2, 6]: 1 min | half-life at 1000 ng/mL ([2]; in vitro, 37° C., read-out: T½): 0.98 min | Concentration of Compound 1 in plasma ([3]; 37° C., incubation 0 min): 771.12 ± 21.68 ng/mL | Concentration of Compound 1 in plasma ([3]; 37° C., incubation 5 min): 804.93 ± 17.45 ng/mL | Concentration of Compound 1 in plasma ([3]; 37° C., incubation 10 min): 811.14 ± 21.06 ng/mL | Concentration of Compound 1 in plasma ([3]; 37° C., incubation 20 min): 809.01 ± 18.58 ng/mL | Concentration of Compound 1 in plasma ([3]; 37° C., incubation 30 min): 789.53 ± 13.73 ng/mL | Concentration of Compound 1 in plasma ([3]; 37° C., incubation 60 min): 717.22 ± 25.73 ng/mL | Concentration of Compound 1 in plasma ([3]; 37° C., incubation 120 min): 608.14 ± 25.96 ng/mL | Concentration of Compound 1 in plasma ([3]; 37° C., incubation 240 min): 428.20 ± 12.03 ng/mL | half-life at 1000 ng/mL ([3]; average, read-out: in vitro half-life (converted)): 240 min | half-life at 1000 ng/mL ([3]; in vitro, 37° C., read-out: T½): 240 min | Concentration of Compound 1 in plasma ([4]; 37° C., incubation 0 min): 775.47 ± 22.50 ng/mL | Concentration of Compound 1 in plasma ([4]; 37° C., incubation 5 min): 593.43 ± 7.55 ng/mL | Concentration of Compound 1 in plasma ([4]; 37° C., incubation 10 min): 503.18 ± 20.90 ng/mL | Concentration of Compound 1 in plasma ([4]; 37° C., incubation 20 min): 394.69 ± 6.72 ng/mL | Concentration of Compound 1 in plasma ([4]; 37° C., incubation 30 min): 316.37 ± 7.67 ng/mL | Concentration of Compound 1 in plasma ([4]; 37° C., incubation 60 min): 162.41 ± 9.77 ng/mL | Concentration of Compound 1 in plasma ([4]; 37° C., incubation 120 min): 32.22 ± 2.63 ng/mL | Concentration of Compound 1 in plasma ([4]; 37° C., incubation 240 min): 0.00 ± 0.00 ng/mL | half-life at 1000 ng/mL [4, 6]: 28 min | half-life at 1000 ng/mL ([4]; in vitro, 37° C., read-out: T½): 27.8 min | plasma level of Compound 1 at one hour after termination of the infusion ([5]; 10 mg/kg): not quantifiable | Cmax ([5]; both sexes, Sprague-Dawley, rat, 10 mg/kg): 980 ng/mL | Cmax ([5]; both sexes, Sprague-Dawley, rat, 30 mg/kg): 3490 ng/mL | Cmax ([5]; both sexes, Sprague-Dawley, rat, 100 mg/kg): 29000 ng/mL | Cmax ([5]; both sexes, Sprague-Dawley, rat, 200 mg/kg): 89700 ng/mL | concentration at 0.167 hr ([5]; both sexes, Sprague-Dawley, rat, plasma, 10 mg/kg iv infusion, read-out: Plasma concentration of Compound 1): 980 ± 311 ng/mL | concentration at 1.167 hr ([5]; both sexes, Sprague-Dawley, rat, plasma, 10 mg/kg iv infusion, 1.167 hr, below 50 ng/mL assigned zero, read-out: Plasma concentration of Compound 1): 0 ng/mL | concentration at 2.167 hr ([5]; both sexes, Sprague-Dawley, rat, plasma, 10 mg/kg iv infusion, 2.167 hr, below 50 ng/mL assigned zero, read-out: Plasma concentration of Compound 1): 0 ng/mL | concentration at 4.167 hr ([5]; both sexes, Sprague-Dawley, rat, plasma, 10 mg/kg iv infusion, below 50 ng/mL assigned zero, read-out: Plasma concentration of Compound 1): 0 ng/mL | Tmax ([5]; both sexes, Sprague-Dawley, rat, plasma, 10 mg/kg): 10 min | concentration at 0.167 hr ([5]; both sexes, Sprague-Dawley, rat, plasma, 30 mg/kg iv infusion, read-out: Plasma concentration of Compound 1): 3490 ± 809 ng/mL | concentration at 4.167 hr ([5]; both sexes, Sprague-Dawley, rat, plasma, 30 mg/kg iv infusion, below 50 ng/mL assigned zero, read-out: Plasma concentration of Compound 1): 0 ng/mL | Tmax ([5]; both sexes, Sprague-Dawley, rat, plasma, 30 mg/kg): 10 min | concentration at 0.167 hr ([5]; both sexes, Sprague-Dawley, rat, plasma, 100 mg/kg iv infusion, read-out: Plasma concentration of Compound 1): 29000 ± 15100 ng/mL | concentration at 4.167 hr ([5]; both sexes, Sprague-Dawley, rat, plasma, 100 mg/kg iv infusion, below 50 ng/mL assigned zero, read-out: Plasma concentration of Compound 1): 0 ng/mL | Tmax ([5]; both sexes, Sprague-Dawley, rat, plasma, 100 mg/kg): 10 min | concentration at 0.167 hr ([5]; both sexes, Sprague-Dawley, rat, plasma, 200 mg/kg iv infusion, read-out: Plasma concentration of Compound 1): 89700 ± 18100 ng/mL | concentration at 4.167 hr ([5]; both sexes, Sprague-Dawley, rat, plasma, 200 mg/kg iv infusion, below 50 ng/mL assigned zero, read-out: Plasma concentration of Compound 1): 0 ng/mL | Tmax ([5]; both sexes, Sprague-Dawley, rat, plasma, 200 mg/kg): 10 min | clearance of Compound 1 in rats ([5]; suggested by the results, half-life not determinable): very rapid | plasma levels of Compound 1 at four hours after termination of the infusion ([5]; three higher dosages of 30 to 200 mg/kg): not quantifiable
